What all share (experiment): Venetoclax cell killing (CellTiter-Glo)
Type in all cases: cell-based

For one assay, the system named is RKO. As to conditions: Homo sapiens, 120 h, Colorectal, 10% FBS, 5 days. The procedure:
(§1) Solid tumor cell lines were obtained from American Type Culture Collection (ATCC, Manassas, Va.) or the National Cancer Institute (NCI) and cultured in humidified incubators at 37° C. (5% CO2) in appropriate media (specified by supplier) supplemented with 10% fetal bovine serum (FBS) or 10% human serum (HS). 24 hours after plating into 96-well or 384-well tissue culture plates, venetoclax was added to cells at various concentrations (typically 0.010 to 10 μM in half-log increments) to perform concentration-response assessments of cell killing. After 1 to 5 days of culture in the presence of venetoclax, cell viability was assessed using CellTiter-Glo® reagent (Promega). IC50 values were determined by non-linear regression analysis of the concentration response data (Table 5 and Table 6).

The subject of a further assay is HCT-116. The conditions noted are these: Homo sapiens, HCT-116, 120 h; Colorectal; 10% FBS; 5 days. The procedure:
as §1

In another assay the test system is C32. As to conditions: Homo sapiens, C32, 120 h; Melanoma; 10% FBS; 5 days. On the procedure: as §1
For another assay, the system named is Hs 695T. The conditions noted are these: Homo sapiens, 120 h, Melanoma, 10% FBS, 5 days. The procedure: as §1
The next assay relates to NCI-H1048. The conditions noted are these: Homo sapiens, NCI-H1048, 72 h; Lung; 10% FBS; 3 days. On the procedure:
as §1

Another assay relates to SW1463. As to conditions: Homo sapiens, SW1463, 120 h; Colorectal; 10% FBS; 5 days. On the procedure:
as §1

Another assay deals with MDA-MB-468. The conditions noted are these: Homo sapiens, MDA-MB-468, 48 h; Breast Cancer; 10% FBS; 2 days. The procedure:
as §1

The next assay has as its system NCI-H1299. As to conditions: Homo sapiens, NCI-H1299, 120 h; Lung; 10% FBS; 5 days. On the procedure:
as §1

The next assay deals with NCI-H1993. As to conditions: Homo sapiens, NCI-H1993, 72 h; Lung; 10% FBS; 3 days. The procedure: as §1
The next assay deals with NCI-H1975. The conditions noted are these: Homo sapiens, NCI-H1975, 72 h; Lung; 10% FBS; 3 days. The procedure:
as §1

A further assay has as its system MDA-MB-231. As to conditions: Homo sapiens, MDA-MB-231, 72 h; Breast Cancer; 10% FBS; 3 days. On the procedure: as §1
Another assay has as its system NCI-H847. As to conditions: Homo sapiens, 24 h; Lung; 10% FBS; 1 day. The procedure: as §1
Another assay deals with NCI-H358. As to conditions: Homo sapiens, NCI-H358, 72 h; Lung; 10% FBS; 3 days. On the procedure:
as §1

Another assay has as its system NCI-H187. As to conditions: Homo sapiens, NCI-H187, 48 h; Lung; 10% HS; 2 days. On the procedure:
as §1

The test system of the next assay is NCI-H524. As to conditions: Homo sapiens, NCI-H524, 24 h; Lung; 10% FBS; 1 day. The procedure: as §1
A further assay has as its system HCC827. As to conditions: Homo sapiens, HCC827, 72 h; Lung; 10% FBS; 3 days. On the procedure:
as §1

The subject of a further assay is NCI-H209. The conditions noted are these: Homo sapiens, NCI-H209, 24 h; Lung; 10% FBS; 1 day. The procedure: as §1
The next assay concerns COLO-201. As to conditions: Homo sapiens, COLO 201, 120 h; Colorectal; 10% FBS; 5 days. On the procedure:
as §1

For another assay, the system named is NCI-H146. As to conditions: Homo sapiens, NCI-H146, 48 h; Lung; 10% HS; 2 days. On the procedure:
as §1

Another assay concerns SW48. The conditions noted are these: Homo sapiens, SW48, 120 h; Colorectal; 10% FBS; 5 days. The procedure: as §1
Another assay concerns SKBR3. The conditions noted are these: Homo sapiens, SK-BR-3, 72 h; Breast Cancer; 10% FBS; 3 days. On the procedure: as §1

The IC50 is the concentration that gives 50% inhibition. For the compound `CC1(C)CCC(CN2CCN(c3ccc(C(=O)NS(=O)(=O)c4ccc(NCC5CCOCC5)c([N+](=O)[O-])c4)c(Oc4cnc5[nH]ccc5c4)c3)CC2)=C(c2ccc(Cl)cc2)C1` [Compound (I), venetoclax], the IC50 in the assay with RKO, with HCT-116, in the assay on C32, in the assay on Hs 695T, in the assay with NCI-H1048 and in the assay on SW1463 was greater than 10 µM throughout. In addition, the IC50 was greater than 10 µM with MDA-MB-468; greater than 10 µM in the assay with NCI-H1299; 3.83 µM in the assay on NCI-H1993; greater than 10 µM in the assay on NCI-H1975; 4.83 µM with MDA-MB-231; greater than 10 µM in the assay on NCI-H847. Further, the IC50 in the assay with NCI-H358 was greater than 10 µM; with NCI-H187, 3.04 µM; with NCI-H524 it was greater than 10 µM; in the assay with HCC827, greater than 10 µM; in the assay on NCI-H209, greater than 10 µM; in the assay with COLO-201, 9.78 µM. The IC50 was 4.2 µM in the assay with NCI-H146, greater than 10 µM in the assay on SW48 and 4.42 µM in the assay on SKBR3.
